Laboratory results taken from paper PMC5608804, “Stepwise Evolution Improves Identification of Diverse Peptides Binding to a Protein Target” (Scientific Reports, 2017).

target: T1, streptavidin (Streptomyces avidinii, UniProt P22629); experiment: Cy5-streptavidin binding on HotSpot discovery array, 5-mer L-peptide library; details: 5-mer L-peptide library array, Cy5-streptavidin; from average of three arrays
T1 construct: purchased GE Healthcare (Little Chalfont, UK)
Method in brief: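 Array of 2,476,099 5-mer peptides (19 amino acids, no cysteine) with Gly-Ser linkers, probed overnight at 4 °C with 0.5 µg/ml Cy5-streptavidin in Tris pH 7.4 buffer containing casein or BSA plus Tween-20. Cy5 fluorescence read at 635 nm; peptides selected by signal-to-background >4 across three arrays.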

T1 sequence (P22629 25-183): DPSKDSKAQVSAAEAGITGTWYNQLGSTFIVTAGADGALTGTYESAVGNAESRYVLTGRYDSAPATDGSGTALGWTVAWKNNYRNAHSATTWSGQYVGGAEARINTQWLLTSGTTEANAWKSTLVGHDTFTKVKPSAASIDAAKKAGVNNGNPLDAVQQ

Substance	S/B (signal to background ratio)
EHHPM	31.0
VHPQA	131.8
GQHPM	43.1
LWHPQ	177.2
IPHPM	35.9
EVHPQ	44.3
YYHPQ	190.0
YHPQA	168.4
PDHPM	23.4
QQHPQ	136.6
VEHPQ	55.4
FHPQY	56.4
RHPMS	30.8
THPQY	30.1
GHPQY	40.1
LAVYH [L-amino acid 5-mer array peptide]	27.0
IHPQA	150.7
HLHPM	40.7
HSHPQ	136.9
LHPQH	38.5
EDHPQ	34.6
HPQVQ	49.2
AHPMS	27.6
QHPQH	52.4
PPHPM	53.6
HPQFW	53.0
RKHPQ	46.9

Substance	S/B (signal to background ratio)
RHPQY	41.5
DHPQK	32.1
TYHPM	50.6
VYHPQ	168.1
MHPMS	25.8
WHPQA	172.2
PGHPQ	168.5
THPQH	42.7
THPQN	136.1
HPQQG	47.0
VFHPM	53.0
HPQVD	33.5
SPHPQ	145.4
LGAFH [L-amino acid 5-mer array peptide]	52.3
ATHPQ	135.7
HPQMS	20.7
IHPQN	128.3
HQHPQ	145.4
SSHPQ	134.8
HPQHG	57.1
PHPMS	30.6
SNHPM	54.1
GMHPM	38.8
RDHPQ	132.4
IQHPM	50.9
STHPQ	139.4
KHPQV	33.0

Substance	S/B (signal to background ratio)
RYHPQ	175.9
MHPQA	138.1
HPQRW	30.7
LHPQA	128.0
IHPQF	148.4
PHPMV	24.7
MQHPM	43.9
FMHPQ	206.0
AMHPQ	124.0
EHPQF	53.2
RHPQW	20.3
HPQFL	42.4
NYHPM	52.9
MHHPQ	178.1
QHPQN	143.0
WQHPQ	199.1
LASYH [L-amino acid 5-mer array peptide]	25.7
IWHPQ	174.8
MNHPQ	166.1
HHPMN	25.7
YGHPQ	210.5
MEHPM	23.4
FHPMM	24.3
MYHPQ	182.6
HPQVE	19.8
PNHPQ	144.0

same assay, conditions: 5-mer L-peptide library array, Cy5-streptavidin; from the average of three arrays

Substance	S/B (signal to background ratio)
SHPQG	117.3
YEHPQ	103.2
SFHPM	65.3
VHPQG	101.6
IHPQG	85.9
HPQGF	63.7
MHPMA	62.7
PVHPQ	99.3
DMHPQ	69.3
HGHPM	69.3
LAHPM	62.9
KQHPQ	94.4
THPQS	70.8
KMHPQ	80.4
HFHPM	76.4
DGHPQ	62.6
MDHPQ	88.9
KVHPQ	65.5
VHPQS	73.9
IVHPQ	94.3
KNHPQ	104.8
VQHPQ	114.0
HPQMG	59.2
RHPMA	68.6
FHPMG	59.2
NQHPQ	107.5

Substance	S/B (signal to background ratio)
MPHPM	58.7
MHPQS	75.9
HPMGG	60.6
EHPQA	70.0
FYHPM	99.8
KLHPQ	71.4
VRHPM	64.0
EYHPQ	96.9
WTHPM	114.6
KGHPQ	65.1
NWHPM	84.8
LKHPQ	83.5
QHPQS	87.0
DHPQN	72.7
HPQNT	67.6
KIHPQ	60.4
RWHPM	79.7
SIHPQ	118.3
DPHPQ	88.5
HPQFV	69.2
HPQFY	70.7
HPQNP	89.0
FHPQM	58.1
HDHPQ	112.6
QEHPQ	63.4
EHPQN	71.2

same assay, conditions: 5-mer L-peptide library, from the average of three arrays

Substance	S/B (signal to background ratio)
NHPMK	4.7
HPMHM	4.4
KHPMF	4.5
THPQL	4.2
HPQTV	4.3
HPQPQ	4.4
MVQHF [L-amino acid 5-mer array peptide]	5.2
HPQSK	4.7
WDAWE [L-amino acid 5-mer array peptide]	4.0
KHPMH	5.1
HPMMF	5.1
HPWRN	4.7
HGFPF	4.7
GPMPD	4.4
NHPQL	4.1
HPMHW	4.9
IAAYH [L-amino acid 5-mer array peptide]	4.8
HPMFI	4.7
WHKPQ	4.7
HGFPT	4.2

same assay, conditions: average of three arrays, L-peptide 5-mer library

Substance	S/B (signal to background ratio)
LSAYH [L-amino acid 5-mer array peptide]	17.7
LGIYH [L-amino acid 5-mer array peptide]	10.5
LAVYH [L-amino acid 5-mer array peptide]	27.0
RFDLL [L-amino acid 5-mer array peptide]	5.2
MVQHF [L-amino acid 5-mer array peptide]	5.2
FDSWL [L-amino acid 5-mer array peptide]	8.0
WDAWE [L-amino acid 5-mer array peptide]	4.0
LGAFH [L-amino acid 5-mer array peptide]	52.3
HGFPF	4.7
GYWTD [L-amino acid 5-mer array peptide]	8.4
IAAYH [L-amino acid 5-mer array peptide]	4.8
LASYH [L-amino acid 5-mer array peptide]	25.7
MAKHF [L-amino acid 5-mer array peptide]	5.4
HGFPT	4.2

same assay, conditions: signal to background ratio; 5-mer L-peptide library array, Cy5-streptavidin

Substance	S/B
LSAYH [L-amino acid 5-mer array peptide]	17.7
KHPMS	8.8
VVHPM	15.5
LGIYH [L-amino acid 5-mer array peptide]	10.5
HPMYF	12.1
NHPQW	16.4
QHPQI	14.9
DHPMM	5.6
HPMNA	17.1
VHPMF	9.9
WHPPQ	9.3
RFDLL [L-amino acid 5-mer array peptide]	5.2
HPQAI	10.7
AKHPM	18.3
FHPQL	7.4
FDSWL [L-amino acid 5-mer array peptide]	8.0
PHPQK	14.7
HPQMR	7.1
QHPMH	12.4
HPQSW	18.3
IHPQD	10.4

Substance	S/B
NHPQK	14.8
HPMRY	5.8
DHPMN	12.4
GHPQW	18.1
HHPQK	18.7
HPLPW	8.0
GYWTD [L-amino acid 5-mer array peptide]	8.4
MHPMM	9.8
HPQSI	7.3
YRGHP	5.3
YHPQL	6.4
HPMYM	8.3
HPQYD	8.0
HPMRN	8.8
HPQRF	7.3
MAKHF [L-amino acid 5-mer array peptide]	5.4
HPQYK	6.3
HPQAL	10.3
LHPQW	12.4
LHPMY	7.0
HPMHP	14.9
